This experiment deals with T1, HTH-type transcriptional regulator MgrA (Staphylococcus aureus, UniProt P0C1S0).
T1 sequence (P0C1S0 whole entry): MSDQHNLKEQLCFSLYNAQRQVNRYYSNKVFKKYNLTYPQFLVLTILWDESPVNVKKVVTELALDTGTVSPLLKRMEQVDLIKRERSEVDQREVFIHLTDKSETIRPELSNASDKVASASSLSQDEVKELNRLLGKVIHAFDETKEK
Nature of the experiment: Biochemical Assay. Conditions: pH 7.4.

Procedure: A fluorescence anisotropy (FA)-based biochemical assay that monitors MgrA-DNA binding. To determine the binding affinity of MgrA to the labeled DNA, different amounts of MgrA were added into the 96-well format plate.

Usually IC50 stands for the concentration needed to halve the response being measured. Higher therefore signals weaker potency in that assay. In the case of `Cc1ccc(C)n1[C@@H](CC(=O)O)c1ccc2c(c1)OCO2` [MgrA inhibitor, 2], inhibition was half-maximal at 30 µM (IC50).

Values taken from BindingDB's records for doi:10.1016/j.chembiol.2011.05.014 (The University of Chicago, 2011).
